Results taken from ChEMBL document CHEMBL4033638, “Effect of natural and semi-synthetic cadinanes from Heterotheca inuloides on NF-κB, Nrf2 and STAT3 signaling pathways and evaluation of their in vitro cytotoxicity in human cancer cell lines” (Bioorg Med Chem, 2017).
The source made the active and inactive calls. The rule behind the calls is not given here.

How the values were obtained:
[1] = Inhibition of TNFalpha-stimulated NFkappaB (unknown origin) expressed in mouse NIH-3T3-KBFLuc cells at 50 uM after 6 hrs by luciferase reporter gene assay relative to control; type: cell-based; settings: Homo sapiens
[2] = biological target: T1, Nuclear factor erythroid 2-related factor 2 (Homo sapiens) (UniProt Q16236); assay: Activation of Nrf2 in human HaCaT-ARE-Luc cells at 50 uM after 6 hrs by luciferase reporter gene assay relative to control; type: cell-based
T1 sequence (whole entry): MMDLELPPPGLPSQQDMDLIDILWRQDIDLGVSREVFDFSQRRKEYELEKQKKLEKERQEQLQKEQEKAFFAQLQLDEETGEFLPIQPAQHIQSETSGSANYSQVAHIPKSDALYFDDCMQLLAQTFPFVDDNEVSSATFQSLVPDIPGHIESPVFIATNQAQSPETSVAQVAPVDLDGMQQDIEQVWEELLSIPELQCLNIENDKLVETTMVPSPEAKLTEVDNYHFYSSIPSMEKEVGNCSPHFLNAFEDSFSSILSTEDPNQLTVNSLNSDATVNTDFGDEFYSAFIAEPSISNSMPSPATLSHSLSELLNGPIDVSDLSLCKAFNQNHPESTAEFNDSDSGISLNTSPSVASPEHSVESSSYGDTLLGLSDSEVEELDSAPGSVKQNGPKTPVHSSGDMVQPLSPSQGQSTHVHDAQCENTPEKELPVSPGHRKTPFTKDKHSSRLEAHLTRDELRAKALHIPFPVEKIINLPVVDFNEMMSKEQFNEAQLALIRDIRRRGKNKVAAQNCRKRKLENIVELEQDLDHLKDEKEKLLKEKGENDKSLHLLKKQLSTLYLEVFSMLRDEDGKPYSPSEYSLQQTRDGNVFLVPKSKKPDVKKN

[3] = biological target: Signal transducer and activator of transcription 3 (Homo sapiens) (UniProt P40763); assay: Inhibition of IFNgamma-stimulated STAT3 (unknown origin) activation expressed in human HeLa cells at 50 uM after 6 hrs by luciferase reporter gene assay relative to control; type: cell-based
[4] = Inhibition of TNFalpha-stimulated NFkappaB (unknown origin) expressed in mouse NIH-3T3-KBFLuc cells preincubated for 15 mins followed by TNFalpha stimulation for 6 hrs by luciferase reporter gene assay; type: cell-based; settings: Homo sapiens
NIH3T3 = assay: Cytotoxicity against mouse NIH/3T3 cells infected with lentivirus encoding nuclear restricted red fluorescent protein assessed as reduction in cell viability up to 100 uM after 6 hrs by microscopic method; type: cell-based; settings: nih3t3, 6 h
U-251 [5] = assay: Antiproliferative activity against human U251 cells at 50 uM after 48 hrs by sulforhodamine B assay relative to control; type: functional; settings: U-251, 48 h
U-251 [6] = assay: Antiproliferative activity against human U251 cells after 48 hrs by sulforhodamine B assay; type: functional, cell-based; settings: U-251, 48 h
PC-3 [7] = assay: Antiproliferative activity against human PC3 cells at 50 uM after 48 hrs by sulforhodamine B assay relative to control; type: functional; settings: PC-3, 48 h
PC-3 [8] = assay: Antiproliferative activity against human PC3 cells after 48 hrs by sulforhodamine B assay; type: functional, cell-based; settings: PC-3, 48 h
K562 [9] = assay: Antiproliferative activity against human K562 cells at 50 uM after 48 hrs by sulforhodamine B assay relative to control; type: functional; settings: K562, 48 h
K562 [10] = assay: Antiproliferative activity against human K562 cells after 48 hrs by sulforhodamine B assay; type: functional, cell-based; settings: K562, 48 h
HCT-15 [11] = assay: Antiproliferative activity against human HCT15 cells at 50 uM after 48 hrs by sulforhodamine B assay relative to control; type: functional; settings: HCT-15, 48 h
HCT-15 [12] = assay: Antiproliferative activity against human HCT15 cells after 48 hrs by sulforhodamine B assay; type: functional, cell-based; settings: HCT-15, 48 h
MCF7 [13] = assay: Antiproliferative activity against human MCF7 cells at 50 uM after 48 hrs by sulforhodamine B assay relative to control; type: functional; settings: MCF7, 48 h
SK-LU-1 [14] = assay: Antiproliferative activity against human SK-LU-1 cells at 50 uM after 48 hrs by sulforhodamine B assay relative to control; type: functional; settings: SK-LU-1, 48 h
SK-LU-1 [15] = assay: Antiproliferative activity against human SK-LU-1 cells after 48 hrs by sulforhodamine B assay; type: functional, cell-based; settings: SK-LU-1, 48 h
[16] = Cytotoxicity against human gingival fibroblasts assessed as decrease in cell viability at 50 uM after 48 hrs by sulforhodamine B dye-based assay; settings: gingival fibroblast
MCF7 [17] = assay: Antiproliferative activity against human MCF7 cells after 48 hrs by sulforhodamine B assay; type: functional, cell-based; settings: MCF7, 48 h
[18] = Cytotoxicity against human gingival fibroblasts assessed as decrease in cell viability at 50 uM after 48 hrs by sulforhodamine B dye-based assay relative to control; settings: gingival fibroblast
HaCaT [19] = assay: Induction of ROS accumulation in human HaCaT cells at 10 to 100 uM by CM-H2DCFDA dye-based fluorescence assay; type: functional, cell-based
Mus musculus = organism: Mus musculus; assay: Inhibition of IKK in mouse NIH-3T3-KBF-Luc cells assesed as downregulation of TNFalpha-stimulated phospho-IkappaBalpha protein expression levels at 10 to 100 uM preincubated for 15 mins followed by TNFalpha stimulation for 20 mins by Western blot analysis
HaCaT [20] = assay: Antioxidant activity in human HaCaT cells assessed as inhibition of TBHP-induced ROS accumulation by measuring ROS level at 10 uM preincubated with cells followed by TBHP addition by CM-H2DCFDA dye-based fluorescence assay relative to control; type: functional; parameters: scale not given: the % may be the effect or the level left
HaCaT [21] = assay: Antioxidant activity in human HaCaT cells assessed as inhibition of TBHP-induced ROS accumulation by measuring ROS level at 25 uM preincubated with cells followed by TBHP addition by CM-H2DCFDA dye-based fluorescence assay relative to control; type: functional; parameters: scale not given: the % may be the effect or the level left
HaCaT [22] = assay: Antioxidant activity in human HaCaT cells assessed as inhibition of TBHP-induced ROS accumulation by measuring ROS level at 50 uM preincubated with cells followed by TBHP addition by CM-H2DCFDA dye-based fluorescence assay relative to control; type: functional; parameters: scale not given: the % may be the effect or the level left
HaCaT [23] = assay: Antioxidant activity in human HaCaT cells assessed as inhibition of TBHP-induced ROS accumulation by measuring ROS level at 75 uM preincubated with cells followed by TBHP addition by CM-H2DCFDA dye-based fluorescence assay relative to control; type: functional; parameters: scale not given: the % may be the effect or the level left
HaCaT [24] = assay: Antioxidant activity in human HaCaT cells assessed as inhibition of TBHP-induced ROS accumulation by measuring ROS level at 100 uM preincubated with cells followed by TBHP addition by CM-H2DCFDA dye-based fluorescence assay relative to control; type: functional; parameters: scale not given: the % may be the effect or the level left
HaCaT [25] = assay: Antioxidant activity in human HaCaT cells assessed as inhibition of TBHP-induced ROS accumulation by measuring ROS level preincubated with cells followed by TBHP addition by CM-H2DCFDA dye-based fluorescence assay relative to control; type: functional; parameters: scale not given: the % may be the effect or the level left

Chain of Signal transducer and activator of transcription 3 (Homo sapiens) (P40763 whole entry): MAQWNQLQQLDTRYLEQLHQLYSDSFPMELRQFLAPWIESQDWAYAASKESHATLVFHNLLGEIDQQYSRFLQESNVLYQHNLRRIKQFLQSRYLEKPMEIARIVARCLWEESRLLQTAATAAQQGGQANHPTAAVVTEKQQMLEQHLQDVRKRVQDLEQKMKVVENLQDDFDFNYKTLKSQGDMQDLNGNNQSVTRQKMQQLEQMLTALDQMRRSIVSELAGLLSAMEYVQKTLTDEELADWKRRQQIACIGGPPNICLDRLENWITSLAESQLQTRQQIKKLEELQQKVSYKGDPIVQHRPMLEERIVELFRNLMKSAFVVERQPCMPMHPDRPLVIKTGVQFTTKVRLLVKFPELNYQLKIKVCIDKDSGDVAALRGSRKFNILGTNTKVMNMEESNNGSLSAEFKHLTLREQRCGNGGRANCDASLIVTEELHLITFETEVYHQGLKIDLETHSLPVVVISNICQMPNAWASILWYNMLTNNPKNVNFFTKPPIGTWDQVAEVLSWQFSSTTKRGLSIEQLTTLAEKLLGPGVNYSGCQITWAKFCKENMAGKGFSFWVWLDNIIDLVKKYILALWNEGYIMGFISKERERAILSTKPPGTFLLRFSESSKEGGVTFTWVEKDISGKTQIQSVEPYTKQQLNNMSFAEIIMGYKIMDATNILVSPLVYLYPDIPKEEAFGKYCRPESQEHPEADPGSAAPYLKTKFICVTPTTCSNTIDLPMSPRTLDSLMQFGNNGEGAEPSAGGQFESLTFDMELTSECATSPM

SMILES	inhibition [1] [%]	fold change (FC) [2]	inhibition [3] [%]	IC50 [4] [µM]	Activity (NIH3T3)	inhibition at 50 µM (U-251 [5]) [%]	IC50 (U-251 [6]) [µM]	inhibition at 50 µM (PC-3 [7]) [%]	IC50 (PC-3 [8]) [µM]	inhibition at 50 µM (K562 [9]) [%]	IC50 (K562 [10]) [µM]	inhibition at 50 µM (HCT-15 [11]) [%]	IC50 (HCT-15 [12]) [µM]	inhibition at 50 µM (MCF7 [13]) [%]	inhibition at 50 µM (SK-LU-1 [14]) [%]	IC50 (SK-LU-1 [15]) [µM]	IC50 (MCF7 [17]) [µM]	Activity [18] [%]	also measured
CC1=CC[C@H](C(C)C)c2cc(C)c(O)cc21	50.8	3.1	2.1	72	Non-Toxic	–	–	–	–	–	–	–	–	–	–	–	–	–	–
Cc1cc2c(C(C)C)ccc(C)c2cc1O	61.5	1.7	3.5	16.5	Non-Toxic	–	–	–	–	–	–	–	–	–	–	–	–	–	–
Cc1cc2c(C(C)C)ccc(C)c2cc1OC(=O)Nc1ccccc1	13.3	1.4	3	–	–	100	15.8	44.7	8.62	100	14	84.7	3.88	100	90.4	10.1	–	–	Activity [16]: Non-Toxic
Cc1ccc(C(=O)Oc2cc3c(C)ccc(C(C)C)c3cc2C)cc1	30.3	1.8	2.9	–	–	100	22.8	72.3	23.7	100	8.37	86.5	12	90.2	100	10.2	8.2	13.37	–
CC1=CC[C@H](C(C)C)c2cc(C)c(OC(=O)c3ccc(C)cc3)cc21	76	9.4	3.1	47.1	Non-Toxic	67.7	–	49.6	–	100	30.9	78.9	40.3	65	85.4	33.9	–	–	Activity (HaCaT [19]): inactive; inhibition (Mus musculus): Active; Activity (HaCaT [20]): 74.7%; Activity (HaCaT [21]): 64.5%; Activity (HaCaT [22]): 55.8%; Activity (HaCaT [23]): 52%; Activity (HaCaT [24]): 25.9%
CC(=O)N[C@@H](CS)C(=O)O [ACETYLCYSTEINE]	–	–	–	–	–	–	–	–	–	–	–	–	–	–	–	–	–	–	Activity (HaCaT [25]): 1%
Cc1cc2c(C(C)C)ccc(C)c2cc1OC(=O)c1ccc([N+](=O)[O-])cc1	18.5	1.8	1.6	–	–	100	7.75	100	17.6	100	2.28	97.6	7.88	100	100	9.37	7.9	43.03	–
CC1=CC[C@H](C(C)C)c2cc(C)c(OC(=O)Nc3ccccc3)cc21	4.2	1.6	3.3	–	–	100	0.46	93.2	7.93	92.6	0.3	92	0.03	75.1	100	0.12	4.05	38.24	–
